Measurements from ChEMBL document CHEMBL1132619 (J Med Chem, 1999).

Experiments:
[1] = target: Histamine H3 receptor (Cavia porcellus) (UniProt Q9JI35); conditions: Jejunum
[2] = target: Histamine H3 receptor (Rattus norvegicus) (UniProt Q9QYN8); conditions: Cerebral cortex
[3] = target: Histamine H2 receptor (Cavia porcellus) (UniProt P47747); conditions: Cardiac atrium
[4] = target: Histamine H1 receptor (Cavia porcellus) (UniProt P31389); conditions: Jejunum
Histamine H3 receptor = Histamine H3 receptor (Rattus norvegicus, UniProt Q9QYN8); test: In vitro binding affinity was measured against Histamine H3 receptor on rat cerebral cortex.; assay type: tissue-based
Histamine H3 receptor, sequence (Q9QYN8 whole entry): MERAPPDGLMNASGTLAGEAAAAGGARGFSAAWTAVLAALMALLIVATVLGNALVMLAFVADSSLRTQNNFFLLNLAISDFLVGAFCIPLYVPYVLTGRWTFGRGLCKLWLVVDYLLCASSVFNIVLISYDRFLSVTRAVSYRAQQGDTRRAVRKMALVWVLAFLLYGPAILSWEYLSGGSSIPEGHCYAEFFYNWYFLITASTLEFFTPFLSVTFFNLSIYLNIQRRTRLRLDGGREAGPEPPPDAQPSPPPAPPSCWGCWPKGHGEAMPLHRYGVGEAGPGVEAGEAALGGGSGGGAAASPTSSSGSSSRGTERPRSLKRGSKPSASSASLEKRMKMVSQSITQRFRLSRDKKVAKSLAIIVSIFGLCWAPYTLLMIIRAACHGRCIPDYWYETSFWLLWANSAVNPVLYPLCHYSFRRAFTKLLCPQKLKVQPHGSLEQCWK

Histamine H3 receptor (Cavia porcellus), sequence (Q9JI35 whole entry): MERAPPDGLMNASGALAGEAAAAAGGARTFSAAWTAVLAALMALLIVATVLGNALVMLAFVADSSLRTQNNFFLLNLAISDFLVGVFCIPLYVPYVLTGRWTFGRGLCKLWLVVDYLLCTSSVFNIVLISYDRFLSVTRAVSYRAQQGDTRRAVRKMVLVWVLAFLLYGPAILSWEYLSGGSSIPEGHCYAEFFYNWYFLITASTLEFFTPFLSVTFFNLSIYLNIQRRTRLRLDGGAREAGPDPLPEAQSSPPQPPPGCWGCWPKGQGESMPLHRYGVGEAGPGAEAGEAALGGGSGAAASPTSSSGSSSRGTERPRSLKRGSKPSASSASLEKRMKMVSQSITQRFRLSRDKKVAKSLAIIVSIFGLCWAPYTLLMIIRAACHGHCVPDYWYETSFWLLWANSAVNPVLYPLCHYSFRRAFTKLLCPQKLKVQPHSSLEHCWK
Histamine H1 receptor (Cavia porcellus), sequence (P31389 whole entry): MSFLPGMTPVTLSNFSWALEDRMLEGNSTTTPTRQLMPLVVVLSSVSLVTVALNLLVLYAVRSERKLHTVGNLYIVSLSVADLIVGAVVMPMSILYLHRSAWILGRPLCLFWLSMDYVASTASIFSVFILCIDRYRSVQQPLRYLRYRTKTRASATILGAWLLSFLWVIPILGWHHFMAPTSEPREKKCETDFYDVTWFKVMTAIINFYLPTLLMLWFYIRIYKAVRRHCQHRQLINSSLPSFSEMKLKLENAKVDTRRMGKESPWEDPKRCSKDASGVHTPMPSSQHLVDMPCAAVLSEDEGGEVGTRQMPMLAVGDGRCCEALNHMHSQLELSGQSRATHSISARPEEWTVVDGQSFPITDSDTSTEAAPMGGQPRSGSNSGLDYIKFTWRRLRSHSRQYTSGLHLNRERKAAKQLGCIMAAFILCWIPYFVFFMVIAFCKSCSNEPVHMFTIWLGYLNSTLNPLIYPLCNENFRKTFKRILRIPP
Histamine H2 receptor (Cavia porcellus), sequence (P47747 whole entry): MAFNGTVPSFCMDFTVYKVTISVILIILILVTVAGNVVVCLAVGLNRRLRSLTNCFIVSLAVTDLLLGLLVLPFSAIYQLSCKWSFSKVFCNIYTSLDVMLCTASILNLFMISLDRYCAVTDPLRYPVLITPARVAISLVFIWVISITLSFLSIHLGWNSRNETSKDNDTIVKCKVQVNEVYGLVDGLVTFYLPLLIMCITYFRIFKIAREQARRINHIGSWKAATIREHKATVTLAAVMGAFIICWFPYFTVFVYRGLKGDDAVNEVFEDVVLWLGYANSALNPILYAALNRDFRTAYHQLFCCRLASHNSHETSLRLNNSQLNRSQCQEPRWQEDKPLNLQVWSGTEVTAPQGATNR
Histamine H3 receptor (Rattus norvegicus), sequence (Q9QYN8 whole entry): as the sequence (Q9QYN8 whole entry) above

Row | SMILES | pD2 [1] | pD2 [2] | pD2 [3] | pD2 [4] | Ki (Histamine H3 receptor) [nM]
1 | NCCc1c[nH]cn1 | 7.4 | 7.4 | 6.1 | 6.6 | 
2 | N[C@@H]1C[C@H]1c1c[nH]cn1 | 6.15 | 5.75 | 4.9 | 4.5 | 
3 | N[C@@H]1C[C@H]1c1cnc[nH]1 [VUF-5296] |  |  |  |  | 25.1
4 | N[C@H]1C[C@@H]1c1c[nH]cn1 [VUF-5297] | 6.64 | 7.08 | 4.8 | 5 | 1.74
